Assay results reported in patent US9233933B2, “4,4-disubstituted-1,4-dihydropyrimidines and the use thereof as medicaments for the treatment of hepatitis B” (priority 2012, dated 2016).
Counter-ions that a name gives are not always drawn. Like-named read-outs stand apart in the source and are kept apart here.

Experiments:
HBV [1] = assay: anti HBV activity in HepG2.117 cell line (Tet-off, inducibly HBV producing), intracellular HBV DNA by realtime PCR; type: cell-based, Hepatitis B virus; details: HepG2.117 cells, 3 days of treatment, intracellular HBV DNA, read-out: HepG2 117 EC50
HBV [2] = assay: anti-HBV activity in stable transfected HepG2.2.15 cell line, HBV DNA from secreted virions by realtime PCR; type: cell-based, Hepatitis B virus; details: HepG2.2.15 cells, 6 days of treatment, secreted virion HBV DNA, read-out: HBV-HepG2 2.15 EC50
in vitro = details: human, HepG2 4 days CC50
[3] = Cytotoxicity in HepG2 cells using CellTiter-Blue, same incubation period as HepG2.2.15 assay; type: cell-based; details: human
Procedure: Cytotoxicity of the compounds was tested in HepG2 cells using CellTiter-Blue, with the same incubation period and dose range as in the HepG2.2.15 assay.

[4] = Cytotoxicity in HepG2 cells incubated 4 days, Resazurin assay; details: human, HepG2 4 days CC50, HepG2 cells
[5] = Hepatitis B virus, HepG2.117, 72 h
[6] = Hepatitis B virus, HepG2.2.15, 144 h
[7] = HepG2 cells, 6 days, CellTiter-Blue, read-out: HepG2 6 days CC50

Row | SMILES | EC50 (HBV [1]; [5]) [nM] | EC50 (HBV [2]; [6]) [nM] | CC50 at 4 days (in vitro) [µM] | CC50 at 6 days ([3]; HepG2 6 days CC50) [µM] | EC50 (HBV [1]) [nM] | EC50 (HBV [2]) [nM] | CC50 at 6 days [3, 7] [µM] | CC50 at 4 days [4] [µM]
1 | COC(=O)C1=C(C)NC(c2ncc(F)cc2F)=NC12C(=O)Nc1cc(F)ccc12 (centres unmarked) [Compound 123] | > 25000 | > 100000 | > 25 |  |  |  |  | 
2 | CCOC(=O)C1=C(CN2CCOCC2)NC(c2ccccn2)=NC12CCc1cc(F)ccc12 (centres unmarked) [Compound 39] | 410 | 405 | > 100 | 62.9 |  |  |  | 
3 | COC(=O)C1=C(C)NC(c2nccs2)=NC12C(F)=Cc1c2ccc(F)c1F (single isomer, unassigned) [Compound 174a] |  |  | > 25 |  | 8970 |  |  | 
4 | COC(=O)C1=C(CN2CCOCC2)NC(c2ccccn2)=NC12C(F)=C(F)c1cc(F)ccc12 (centres unmarked) [Compound 169] | 137 |  | > 25 |  |  |  |  | 
5 | COC(=O)C1=C(C)NC(c2nccs2)=NC12C(F)=C(F)c1cc(F)ccc12 (racemic) [Compound 166] | 14200 | 240 | > 25 |  |  |  |  | 
6 | COC(=O)C1=C(C)NC(c2ncc(F)cc2F)=NC12CCCc1cc(F)ccc12 (centres unmarked) [Compound 80] | 25100 |  | > 50 | 51.1 |  |  |  | 
7 | COC(=O)C1=C(C)NC(c2nccs2)=NC12C(F)=Cc1c2ccc(F)c1F (racemic) [Compound 174] | 13400 |  | > 25 |  |  |  |  | 
8 | COC(=O)C1=C(CN2CCOCC2)NC(c2ccccn2)=NC12C=Cc1cc(F)ccc12 (centres unmarked) [Compound 145] | 620 | 360 | > 25 |  |  |  |  | 
9 | COC(=O)C1=C(CN2CCOCC2)NC(c2ccccn2)=NC12c1ccc(F)cc1C(F)C2(F)F (single isomer, unassigned) [Compound 168A] |  | 9640 | > 25 |  | 3510 |  |  | 
10 | COC(=O)C1=C(CN2CCOCC2)NC(c2ccccn2)=NC12CC(=O)c1cc(F)ccc12 (centres unmarked) [139 •TFA] | 707 | 990 | > 25 |  |  |  |  | 
11 | COC(=O)C1=C(C)NC(c2nccs2)=NC12C(F)=C(F)c1cc(F)ccc12 (single isomer, unassigned) [Compound 166a] | > 25000 |  | > 25 |  |  | > 50000 |  | 
12 | COC(=O)C1=C(CN2CCOCC2)NC(c2ccccn2)=N[C@@]12c1ccc(F)cc1C[C@H]2F (racemic) [Compound 175] | 146 | < 195 | > 25 |  |  |  |  | 
13 | COC(=O)C1=C(CN2CCOCC2)NC(c2ccccn2)=NC12CCc1cc(F)ccc12 (centres unmarked) [Compound 143] | 222 |  | > 25 |  |  |  |  | 
14 | COC(=O)C1=C(C)NC(c2ncc(F)cc2F)=NC1(C)c1ccc(F)cc1 (centres unmarked) [Compound 128] | 2470 | 9100 |  |  |  |  | 63.8 | > 50
15 | COC(=O)C1=C(CN2CCOCC2)NC(c2ccccn2)=NC12CC(O)c1cc(F)ccc12 (centres unmarked) [Compound 144] | 4940 |  | > 10 |  |  |  |  | 
16 | COC(=O)C1=C(CN2CCOCC2)NC(c2ccccn2)=NC12CC(C)c1cc(F)ccc12 (centres unmarked) [Compound 146] | 2620 | 1360 | > 25 |  |  |  |  | 
17 | COC(=O)C1=C(CN2CCOCC2)NC(c2ccccn2)=NC1(C)c1ccc(F)cc1 (centres unmarked) [Compound 2] | 250 | 669 |  |  |  |  | > 100 | > 50
18 | CCOC(=O)C1=C(CN2CCOCC2)NC(c2ccccn2)=NC1(C)c1ccc(F)cc1Cl (centres unmarked) [Compound 41] | 4500 | 7390 |  |  |  |  | > 50 | > 25
19 | CCOC(=O)C1=C(CN2CCOCC2)NC(c2ccccn2)=NC1(C)c1ccc(F)c(Cl)c1 (centres unmarked) [Compound 18] | 1600 | 3920 |  |  |  |  | 36.5 | > 50
20 | N#CC1=C(CN2CCOCC2)NC(c2ccccn2)=NC12CCCc1cc(F)ccc12 (racemic) [Compound 60] | 2500 | 2830 |  |  |  |  | > 100 | > 25
21 | COC(=O)C1=C(CN2CCOCC2)NC(c2ccccn2)=NC1(C)c1ccccc1Cl (centres unmarked) [Compound 13] | 3900 | 9340 |  |  |  |  | > 100 | > 100
